{"source": "paper PMC9061857", "about": "“A fluorogenic probe for granzyme B enables in-biopsy evaluation and screening of response to anticancer immunotherapies” (Nature Communications, 2022)", "system": "SCC cancer cells", "assay": "Ex vivo flow cytometry of wild-type SCC and SCC FAK (−/−) tumors", "assay_type": "cell-based, mouse", "settings": "for Fluorescence intensity of H5 inside SCC cancer cells (525 nm) / Freq cancer cells (GzmB-positive SCC cancer cells by H5 staining): H5 5 μM, 30 min; for Mean fluorescence intensity after incubation with probe H5: SCC (-/-) tumor digests", "experimental": "P-values from two-tailed t-tests using Welch correction. Source data (c–f) provided as a Source Data file.\nAll animal work was carried out in compliance with UK Home Office guidelines. SCC tumors were established and labeled for flow cytometry as previously described. Briefly, 1 × 10^6 SCC cancer cells (obtained from Dr Alan Serrels at The University of Edinburgh) were injected subcutaneously into FVB/N mice (n = 4 for both WT and FAK (−/−) groups, Sex: female, Age: 10–14 weeks, obtained from Harlan UK), which were sacrificed 14 days post-implantation and tumors disaggregated to generate a single-cell suspension. […] Data analysis was performed using FlowJo V10 software. […]\nand SCC7.1 FAK-/- tumors. All cells were gated on singlets and live cells (Zombie NIR viability dye, 1:1000 dilution). Wild-type SCC and SCC FAK-/- were gated as CD45− CD140a− (AF700 & BV650, respectively). All non-cancerous and non-fibrotic cells were gated on CD45+ (AF700). Monocytes were gated on CD11b+ (PerCP-Cy5.5) whilst the remaining cells were classified as CD8+ T cells (PE), CD4+ T cells (eFluor450) or immune cells (CD4−CD8− or CD4+CD8+).\n(1 picture or pasted object on this page, not shown here)", "note": "Where no end group is shown, it is not given here.", "data": [{"substance": "IEPDAL [H5, FRET hexapeptide IEPDAL with BODIPY-FL fluorophore at the N-terminal end and Dabcyl quencher]", "values": [{"measurement": "Fluorescence intensity of H5 inside SCC cancer cells (525 nm)", "setting": "SCC FAK tumor, Data 1", "value": 17211}, {"measurement": "Freq cancer cells (GzmB-positive SCC cancer cells by H5 staining)", "setting": "SCC FAK tumor, Data 1", "value": 19, "unit": "%"}, {"measurement": "Fluorescence intensity of H5 inside SCC cancer cells (525 nm)", "setting": "SCC FAK tumor, Data 2", "value": 15125}, {"measurement": "Freq cancer cells (GzmB-positive SCC cancer cells by H5 staining)", "setting": "SCC FAK tumor, Data 2", "value": 45, "unit": "%"}, {"measurement": "Fluorescence intensity of H5 inside SCC cancer cells (525 nm)", "setting": "SCC FAK tumor, Data 3", "value": 14692}, {"measurement": "Freq cancer cells (GzmB-positive SCC cancer cells by H5 staining)", "setting": "SCC FAK tumor, Data 3", "value": 38, "unit": "%"}, {"measurement": "Fluorescence intensity of H5 inside SCC cancer cells (525 nm)", "setting": "SCC FAK tumor, Data 4", "value": 14334}, {"measurement": "Freq cancer cells (GzmB-positive SCC cancer cells by H5 staining)", "setting": "SCC FAK tumor, Data 4", "value": 41, "unit": "%"}, {"measurement": "Fluorescence intensity of H5 inside SCC cancer cells (525 nm)", "setting": "SCC tumor, Data 1", "value": 5564}, {"measurement": "Freq cancer cells (GzmB-positive SCC cancer cells by H5 staining)", "setting": "SCC tumor, Data 1", "value": 6, "unit": "%"}, {"measurement": "Fluorescence intensity of H5 inside SCC cancer cells (525 nm)", "setting": "SCC tumor, Data 2", "value": 6027}, {"measurement": "Freq cancer cells (GzmB-positive SCC cancer cells by H5 staining)", "setting": "SCC tumor, Data 2", "value": 4.5, "unit": "%"}, {"measurement": "Fluorescence intensity of H5 inside SCC cancer cells (525 nm)", "setting": "SCC tumor, Data 3", "value": 5635}, {"measurement": "Freq cancer cells (GzmB-positive SCC cancer cells by H5 staining)", "setting": "SCC tumor, Data 3", "value": 2.78, "unit": "%"}, {"measurement": "Fluorescence intensity of H5 inside SCC cancer cells (525 nm)", "setting": "SCC tumor, Data 4", "value": 5745}, {"measurement": "Freq cancer cells (GzmB-positive SCC cancer cells by H5 staining)", "setting": "SCC tumor, Data 4", "value": 3.77, "unit": "%"}, {"measurement": "Mean fluorescence intensity after incubation with probe H5", "setting": "CD4 T cells, Data 1", "value": 3345}, {"measurement": "Mean fluorescence intensity after incubation with probe H5", "setting": "CD4 T cells, Data 2", "value": 2508}, {"measurement": "Mean fluorescence intensity after incubation with probe H5", "setting": "CD8 T cells, Data 1", "value": 3289}, {"measurement": "Mean fluorescence intensity after incubation with probe H5", "setting": "CD8 T cells, Data 2", "value": 2980}, {"measurement": "Mean fluorescence intensity after incubation with probe H5", "setting": "cancer cells, Data 1", "value": 11273}, {"measurement": "Mean fluorescence intensity after incubation with probe H5", "setting": "cancer cells, Data 2", "value": 13796}, {"measurement": "Mean fluorescence intensity after incubation with probe H5", "setting": "immune cells (CD8-CD4-CD11b-), Data 1", "value": 3435}, {"measurement": "Mean fluorescence intensity after incubation with probe H5", "setting": "immune cells (CD8-CD4-CD11b-), Data 2", "value": 2496}, {"measurement": "Mean fluorescence intensity after incubation with probe H5", "setting": "monocytes / macrophages, Data 1", "value": 2362}, {"measurement": "Mean fluorescence intensity after incubation with probe H5", "setting": "monocytes / macrophages, Data 2", "value": 2247}, {"measurement": "cancer cells labeled with probe H5", "setting": "SCC FAK (−/−) tumors, H5 30 min", "value": "over 40%"}]}]}
